The results in this text go back to patent US9856259B2, “Heterocyclic compounds and uses thereof” (Plexxikon Inc., priority 2014, dated 2018).

pIC50: −log10 of the molar value.

Experiment [1] deals with T1, BRD4-BD12 (Homo sapiens, UniProt O60885).
T1 construct: dual bromodomains (BRD4-BD12 (1-477), BRD4-BD12 (1-472)); six-His tag (N); made in house; host or cells: E. coli BL21-CodonPlus (DE3)
Description: Alphascreen binding assay, BRD4(1 2) H4. As to conditions: BRD4 dual bromodomains with acetylated Histone 4 peptide, read-out: Biochemical activity (IC50 μM) BRD4(1 2) H4. How it is done: Binding of compounds of formula (I) with bromodomain 2, 3 4 was assessed using Alphascreen binding assay. The inhibition of the interaction between bromodomain and its acetylated target protein (Filippakopoulos P et al. 2012) was measured quantitatively using recombinant BRD proteins, an acetylated Histone 4 peptide and AlphaScreen™ technology. In absence of inhibition the BRD protein bound to AlphaScreen™ nickel chelate acceptor beads can interact with the acetylated Histone 4 peptide which is immobilized by the AlphaScreen™ Streptavidin coated beads. This interaction brings donor and acceptor beads in proximity. The close proximity allows the singlet oxygen produced by laser excitation of the donor beads to reach the acceptor beads and generate a luminescence signal. BRD inhibitors result in a decrease in the proximity signal through an inhibition of the BRD acetylated peptide interaction.
Recombinant human bromodomains containing the N-terminal bromodomain (BRD2-BD1 (71-194), BRD3-BD1 (24-144) and BRD4-BD1 (44-164)) or dual bromodomains (BRD4-BD12 (1-477), BRD4-BD12 (1-472)) were prepared and purified as described in protein expression and purification session. The peptide is human Histone H41-21K5AcK8AcK12AcK16Ac-Biotin (Anaspec Calif., USA).
Protocol for BRD2, BRD3 and BRD4 assay: All components are prepared in buffer composed of 50 mM HEPES pH 7.5, 100 mM NaCl, 0.01% BSA, 0.01% Triton X-100, 2 mM DTT. 7 μL of Bromodomain protein and 7 μL of peptide are added to wells containing 1 μL of various concentrations of test compounds of formula (I) or DMSO vehicle in an Alphaplate (PerkinElmer Ga., USA) and incubated for 1 hour at room temperature. 4 μL donor and acceptor bead mixture is then added with final concentrations of 7.5 μg/ml. 30 minutes after bead addition, Alpha signal is read on the Envision spectrometer (λEx 680 nm, λEm 520-620 nm). Final concentrations of bromodomain proteins and peptide are as shown below.
All data was normalized to the mean of 16 high and 16 low control wells on each plate. A four parameter curve fit of the following formula was then applied: Y=a+(b−a)/(1+(x/c)^d) Where ‘a’ is the minimum, ‘b’ is the maximum, ‘c’ is the pIC50 and ‘d’ is the Hill slope. Protein Expression and Purification
Recombinant human bromodomains containing the N-terminal bromodomain (BRD2-BD1 (71-194), BRD3-BD1 (24-144) and BRD4-BD1 (44-164)) or dual bromodomains (BRD4-BD12 (1-477), BRD4-BD12 (1-472)) were expressed in E. coli cells (in a modified pET vector) with an N-terminal six-His tag and purified using a combination of both IMAC (Ni-affinity) and size exclusion chromatography steps.
Recombinant BRD proteins were expressed using the E. coli strain BL21-CodonPlus (DE3) (Agilent Technologies CA, USA). Cells were grown in Terrific Broth (TB) media to an OD600 of 1.2 at 37° C. at which temperature was reduced to 25° C., protein was induced with 1.0 mM IPTG for 12-18 hours and harvested by centrifugation at 8000×g for 20 minutes. Cells were re-suspended in 0.1M KPO4 pH 8.0, 250 mM NaCl, 10% Glycerol, 0.75% NP-40, 25 mM Imidazole, 5 mM BME with 0.2 mg/ml Lysosyme, 2.0 mM PMSF, 25 μg/ml DNAse I, incubated on ice for 30 minutes and lyzed with a cell disruptor (MicroFluidics MA, USA). The lysate was clarified by centrifugation at 20,000×g for 2 hours. The protein was captured with Ni-NTA resin (Life Technologies, USA). Contaminating proteins were washed off with 25 mM Tris-HCl pH 8.3, 250 mM NaCl, 12% Glycerol and 50 mM Imidazole. Following 3× wash steps, protein was eluted step wise using a 50 mM HEPES pH 7.5, 500 mM NaCl and 400 mM Imidazole. The protein was further purified using Gel Filtration column 26/600 Superdex 200 (GE Biosciences N.J., USA) in 50 mM HEPES pH 7.5, 250 mM NaCl. The protein was aliquoted and flash-frozen in liquid Nitrogen.

Experiment [2] relates to MV-4-11. Description: Oncology cell growth assay, MV-4-11 3 d growth. Format: cell-based. The note with it: Homo sapiens, MV4-11; MV-4-11 cells, 72 hours, CellTiter Glo; read-out: Cell activity (IC50 μM) MV-4-11 3 d-Growtb. How it is done: (§1) In this study, we test compounds in different cancer cell lines. MV-4-11 and MOLM-13 are AML cell lines harboring a MLL-AF4 and MLL-AF9 translocation, respectively. MM.1S is a multiple myeloma cell line. SK—N-AS, IMR-32 and SK-N-BE(2) are neuroblastoma cell lines. IMR-32 and SK-N-BE(2) cell lines harbor MYCN amplifications.
(§2) MV-4-11, MM.1S, IMR-32, SK-N-AS and SK-N-BE(2) were obtained from ATCC (IL, USA) and MOLM-13 were purchased from DSMZ (Braunschweig, German). Cells are cultured as recommended by their sources. For growth inhibition studies 3000 cells are seeded in wells of a 96-well plate in 75 μL of culture media. After several hours, growth media containing compounds of formula (I) are added to the wells. Compound at a maximal concentration of 5 mM was serially diluted 1:3 for a total of 8 point titration with DMSO as a control. A 1 μL aliquot of each dilution point is added to 249 μL growth media and 75 μL is added to each well containing cells, providing 10 μM compound at the maximum concentration point. The final concentration of DMSO in all wells is 0.2%. Cells are incubated for 72 hours, and 25 μL of CellTiter Glo Reagent (Promega Ga., USA) is added to each well. Plates are shaken for approximately 10 minutes and chemiluminescent signal is read on Tecan microplate reader. The measured luminescence correlates directly with cell number.
(§3) All data is normalized to the mean of eight DMSO high control wells on each plate. A four parameter curve fit of the following formula was then applied: Y=a+(b−a)/(1+(x/c)^d) Where ‘a’ is the minimum, ‘b’ is the maximum, ‘c’ is the pIC50 and ‘d’ is the Hill slope. […] Myc Reporter Assay
(In general: Cellular ATP, detected with luciferase, serves as a proxy for viable cell number.)

The subject of experiment [3] is cancer cell lines / MV-4-11 Myc reporter cell line. Description: Bromodomain cell assays of Example 8 (at least one of them). Format: cell-based. The note with it: Homo sapiens, MV4-11; at least one of the bromodomain cell assays described in Example 8. How it is done: as §1, §2, §3
In MV-4-11 cells, BRD2, BRD3 and BRD4 bind to the promoter region of MYC and regulate its transcription (Dawson M A et al. 2011). The literature bromodomain inhibitor iBET 151 could disrupt BRD4 recruitment to the MYC promoter and subsequently downregulate c-myc transcription (Dawson M A et al. 2011). Myc protein is a transcription factor that heterodimerizes with an obligatory partner Max and regulates the transcription of genes important for cell proliferation, differentiation, and apoptosis. This Myc reporter assay is used to monitor the inhibitory effect of compound of formula (I) on Myc dependent gene expression. Effective compounds could have potential therapeutic effects in Myc-driven tumors.
The MV-4-11 Myc reporter cell line is established by infecting MV-4-11 with VSV-g pseudotyped lentivirus expressing the firefly luciferase gene under the control of a minimal (m) CMV promoter and tandem repeats of the E-box transcriptional response element (TRE) (Qiagen IL, USA) and selecting cells in 2.5 μg/ml Puromycin.
The MV-4-11 Myc reporter cell line is maintained in Iscove's Modified Dulbecco's Medium containing 10% FBS, 1% PenStep and 2.5 μg/ml Puromycin. Cells are incubated at 37° C. in a humidified atmosphere with 5% CO2. 25,000 cells are seeded in 96-well plate in 50 μL of culture media. After several hours, growth media containing 2× compounds are added to the wells. Compound at a maximal concentration of 5 mM is serially diluted 1:3 for a total of 8 point titration. A 1 μl aliquot of each dilution point is added to 249 μl growth media and 50 μl is added to each well containing cells, providing 10 μM compound at the maximum concentration point. DMSO treated cells serve as a high control and 10 μM JQ1 treated cells serve as a low control. Cells are incubated for a further 24 hours and 25 μL of CellTiter-Fluo Reagent (Promega Ga., USA) is added to each well. Plates are shaken for approximately 2 minutes and incubated at 37° C. for 0.5 hour. Fluorescence signal is read in a Tecan Plate reader (λex=400 nm, λcm=505 nm). 25 μL of One-Glo Reagent (Promega Ga., USA) is then added to the plates. Chemiluminescent signal is read on Tecan plate reader. Values from the wells with no cells are subtracted from all samples for background correction. […]

On to `Cc1noc(C)c1-c1cnc2c(-c3ccc(CC(=O)O)cc3)cn([C@@H](C)c3ccccn3)c2n1` [Compound P-2052, 2-[4-[3-(3,5-dimethylisoxazol-4-yl)-5-[(1S)-1-(2-pyridyl)ethyl]pyrrolo[2,3-b]pyrazin-7-yl]phenyl]acetic acid], for which the IC50 in experiment [1] and in experiment [2] was ≤ 1 µM each time. Further, the pIC50 (in general, the IC50 on a negative log10 scale, so that one unit is a factor of ten) in experiment [3] is > 5.00.

Consider `Cc1noc(C)c1-c1ccc2c(I)nn(C(c3ccccc3)c3ccccn3)c2c1` (stereo not drawn) [Compound P-2003, 4-[3-iodo-1-[phenyl(2-pyridyl)methyl]indazol-6-yl]-3,5-dimethyl-isoxazole], for which the IC50 in experiment [1] and in experiment [2] was ≤ 1 µM each time. Moreover, the pIC50 in experiment [3] is > 5.00.

On to `Cc1noc(C)c1-c1ccc2c(-c3cnn(C)c3)nn(CC3CCC(F)(F)CC3)c2c1` [Compound P-2001, 4-[1-[(4,4-difluorocyclohexyl)methyl]-3-(1-methylpyrazol-4-yl)indazol-6-yl]-3,5-dimethyl-isoxazole], for which the IC50 in experiment [1] and in experiment [2] was ≤ 1 µM in each case. For the same compound, in experiment [3], the pIC50 is > 5.00.

As to `[2H]C([2H])(C1CCC(F)(F)CC1)n1cc(-c2ccc(C(=O)OC)cc2)c2ncc(-c3c(C)noc3C)nc21` [Compound P-2043, methyl 4-[5-[dideuterio-(4,4-difluorocyclohexyl)methyl]-3-(3,5-dimethylisoxazol-4-yl)pyrrolo[2,3-b]pyrazin-7-yl]benzoate], the IC50 (usually the concentration that inhibits the measured activity by half) in experiment [1] is ≤ 1 µM; in experiment [2], 1 to 10 µM. Further, the pIC50 in experiment [3] was > 5.00.

`[2H]C([2H])(C1CCC(F)(F)CC1)n1cc(I)c2ncc(-c3c(C)noc3C)nc21` [Compound P-2039, 4-[5-[dideuterio-(4,4-difluorocyclohexyl)methyl]-7-iodo-pyrrolo[2,3-b]pyrazin-3-yl]-3,5-dimethyl-isoxazole]: the IC50 in experiment [1] and in experiment [2] was ≤ 1 µM in each case. Moreover, the pIC50 in experiment [3] was > 5.00.

`COC(=O)c1ccc(-c2nn(C(c3ccccc3)c3ccccn3)c3cc(-c4c(C)noc4C)ccc23)cc1` (stereo not drawn) [Compound P-2006, methyl 4-[6-(3,5-dimethylisoxazol-4-yl)-1-[phenyl(2-pyridyl)methyl]indazol-3-yl]benzoate]: the IC50 in experiment [1] and in experiment [2] was ≤ 1 µM throughout. Further, in experiment [3], the pIC50 is > 5.00.

In the case of `[2H]C([2H])(C1CCC(F)(F)CC1)n1cc(-c2cnn(C)c2)c2ncc(-c3c(C)noc3C)nc21` [Compound P-2040, 4-[5-[dideuterio-(4,4-difluorocyclohexyl)methyl]-7-(1-methylpyrazol-4-yl)pyrrolo[2,3-b]pyrazin-3-yl]-3,5-dimethyl-isoxazole], the IC50 in experiment [1] and in experiment [2] was ≤ 1 µM in each case. Besides, in experiment [3], the pIC50 was > 5.00.

Take `Cc1noc(C)c1-c1ccc2c(-c3ccc(CC(=O)O)cc3)nn([C@@H](C)c3ccccn3)c2c1` [Compound P-2014, 2-[4-[6-(3,5-dimethylisoxazol-4-yl)-1-[(1S)-1-(2-pyridyl)ethyl]indazol-3-yl]phenyl]acetic acid]: the IC50 in experiment [1] and in experiment [2] was ≤ 1 µM each time. Further, in experiment [3], the pIC50 is > 5.00.

With `Cc1noc(C)c1-c1ccc2c(-c3ccc(C(=O)O)cc3)nn([C@@H](C)c3ccccn3)c2c1` [Compound P-2013, 4-[6-(3,5-dimethylisoxazol-4-yl)-1-[(1S)-1-(2-pyridyl)ethyl]indazol-3-yl]benzoic acid], the IC50 in experiment [1] and in experiment [2] was ≤ 1 µM throughout. Besides, in experiment [3], the pIC50 was > 5.00.

On to `Cc1noc(C)c1-c1ccc2c(-c3cnn(CC(F)(F)F)c3)nn(CC3CCC(F)(F)CC3)c2c1` [Compound P-2002, 4-[1-[(4,4-difluorocyclohexyl)methyl]-3-[1-(2,2,2-trifluoroethyl)pyrazol-4-yl]indazol-6-yl]-3,5-dimethyl-isoxazole], for which the IC50 in experiment [1] and in experiment [2] was ≤ 1 µM throughout. The pIC50 in experiment [3] was > 5.00.
